In assay [1] the target is T1, Solute carrier family 15 member 1 (Rattus norvegicus) (UniProt P51574).
T1 sequence (whole entry): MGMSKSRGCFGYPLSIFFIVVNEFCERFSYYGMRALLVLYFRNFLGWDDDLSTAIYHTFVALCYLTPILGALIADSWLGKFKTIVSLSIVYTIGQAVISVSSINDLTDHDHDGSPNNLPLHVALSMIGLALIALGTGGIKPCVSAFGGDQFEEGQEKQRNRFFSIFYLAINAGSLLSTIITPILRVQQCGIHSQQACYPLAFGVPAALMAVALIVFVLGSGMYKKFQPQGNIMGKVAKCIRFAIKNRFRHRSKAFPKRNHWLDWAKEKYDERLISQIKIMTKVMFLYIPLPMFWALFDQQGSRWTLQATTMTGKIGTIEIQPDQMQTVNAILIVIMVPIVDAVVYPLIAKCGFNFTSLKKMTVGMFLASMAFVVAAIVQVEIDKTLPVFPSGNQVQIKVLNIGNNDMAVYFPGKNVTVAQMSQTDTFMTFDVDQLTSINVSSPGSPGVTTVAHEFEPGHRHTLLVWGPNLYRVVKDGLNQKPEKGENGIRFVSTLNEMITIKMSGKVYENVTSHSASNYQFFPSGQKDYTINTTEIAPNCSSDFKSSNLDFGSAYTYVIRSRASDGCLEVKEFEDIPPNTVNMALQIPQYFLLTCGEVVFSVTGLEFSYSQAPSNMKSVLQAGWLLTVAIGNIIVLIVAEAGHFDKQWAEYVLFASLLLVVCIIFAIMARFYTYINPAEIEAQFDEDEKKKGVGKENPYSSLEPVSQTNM
Put plainly: TP_TRANSPORTER: uptake in Xenopus laevis oocytes. Format: functional, cell-based. Conditions: Oocyte.

For assay [2], the target named is T2, Solute carrier family 15 member 1 (Rattus norvegicus, UniProt P51574).
T2 sequence (P51574 whole entry): T1 sequence (whole entry)
Put plainly: TP_TRANSPORTER: inhibition of D-Phe-L-Gln uptake in Xenopus laevis oocytes. Format: functional, cell-based, Oocyte.

SMILES strings stand for the structures.

With `NC(=O)CC[C@H](NC(=O)[C@H](N)Cc1ccccc1)C(=O)O`, the Activity result in assay [1] is “substrate [+]”.
In turn, `C[C@H](CS)C(=O)N1CCC[C@H]1C(=O)O` [CAPTOPRIL] came in with a Ki in assay [2] of 8.7 mM.
As for `CCOC(=O)[C@H](CCc1ccccc1)N[C@@H](C)C(=O)N1CCC[C@H]1C(=O)O` [ENALAPRIL], the Ki in assay [2] is 4.3 mM.

As a reminder, the Ki is a measure of affinity in units of concentration, obtained from inhibition or displacement. Read a high Ki as weaker binding.

Values taken from ChEMBL document CHEMBL2074272, “Proton-coupled oligopeptide transport by rat renal cortical brush border membrane vesicles: a functional analysis using ACE inhibitors to determine the isoform of the transporter” (Biochim Biophys Acta, 1998).
